Test results: article PMC6594753, “Cystic fibrosis drug ivacaftor stimulates CFTR channels at picomolar concentrations” (eLife, 2019)
Where “and” joins values, the source holds several entries; their conditions need not be identical. Equal values may be shown once. Read-outs that look alike come from different tables or passages of the source.

What was measured:
WT CFTR [1] = molecular target: T1, WT CFTR (Homo sapiens, UniProt P13569); assay: Ensemble fitting of gating models (Schemes 3 and 4) to on-off current time courses; type: biochemical; conditions: for EC50 / Kd: calculated from fit parameters; for kin: constrained kin/kout = 62580; for Kd: read-out: Kd;mem
T1 construct: expressed in transfected cells; host or cells: Xenopus laevis oocytes injected with cRNA transcribed from pGEMHE-CFTR
Text: We next attempted to interpret the observed complex kinetics of the drug effects in terms of various molecular models (Figure 5a–d), by performing global fits of each model (Figure 5f, colored lines) to the ensemble of four experimentally observed current time courses: activation and deactivation upon addition and removal of 0.01x saturated (Figure 5f, gray trace) and 1x saturated (Figure 5f, black trace) Vx-770.
An alternative mechanism that could explain delayed activation by the drug is the presence of multiple drug binding sites, all of which must be occupied to switch the channel to a high open probability state. […] We therefore evaluated a simplistic model which postulates independent drug binding to two sites, with identical affinities, but a substantial change in open probability (from Po;bas to Po;max) only for diliganded channels (Scheme 3, Figure 5c).
Finally, assuming a two-compartment membrane and two drug-binding sites, both accessible from the outer leaflet (Scheme 4, Figure 5d), afforded a further small improvement (Figure 5f, red fit lines) relative to Scheme 3, albeit at the expense of an extra free parameter (Figure 5e, right).
The dynamic equations that describe the kinetic models depicted in Figure 5 are as follows:
• dx1(t)/dt = kin⋅Vc – 2⋅kout⋅x1(t) – kon'⋅(2⋅x2(t)+x3(t))⋅x1(t) + koff⋅(2⋅(Ct–x2(t)–x3(t))+x3(t)) • dx2(t)/dt = – 2⋅kon'⋅x1(t)⋅x2(t) + koff⋅x3(t) • dx3(t)/dt = 2⋅kon'⋅x1(t)⋅x2(t) + 2⋅koff⋅(Ct–x2(t)–x3(t)) – (koff +kon'⋅x1(t))⋅x3(t)
where x1(t) is the concentration of free Vx-770 in the membrane, x2(t) is the concentration of unliganded CFTR channels in the membrane, x3(t) is the concentration of monoliganded CFTR channels in the membrane, Ct is the total concentration of CFTR channels in the membrane, and Vc is the concentration of Vx-770 in the cytosol.
• dx1(t)/dt = kin⋅Vc – (kout +kflip)⋅x1(t) + kflip⋅x2(t) • dx2(t)/dt = kflip⋅x1(t) – (kout +kflip)⋅x2(t) – kon'⋅(2⋅x3(t)+x4(t))⋅x2(t) + koff⋅(2⋅(Ct–x3(t)–x4(t))+x4(t)) • dx3(t)/dt = – 2⋅kon'⋅x2(t)⋅x3(t) + koff⋅x4(t) • dx4(t)/dt = 2⋅kon'⋅x2(t)⋅x3(t) + 2⋅koff⋅(Ct–x3(t)–x4(t)) – (koff +kon'⋅x2(t))⋅x4(t)
where x1(t) is the concentration of Vx-770 in the inner membrane leaflet, x2(t) is the concentration of free Vx-770 in the outer membrane leaflet, x3(t) is the concentration of unliganded CFTR channels in the outer membrane leaflet, x4(t) is the concentration of monoliganded CFTR channels in the outer membrane leaflet, Ct is the total concentration of CFTR channels in the outer membrane leaflet, and Vc is the concentration of Vx-770 in the cytosol.
To calculate the value of Ct, the total number of channels in the patch (N) was estimated by assuming Po;bas=0.16 for prephosphorylated channels in ATP (cf., Figure 2c). For Schemes 1 and 3 the volume of the membrane patch was taken as 10^−16 liter (assuming a macroscopic patch surface area of ~4 μm^2 increased by ~5 fold at a microscopic level due to the presence of microvilli ([Dascal, 1987]), and a membrane thickness of ~5 nm), and for Schemes 2 and 4 the volume of the outer membrane leaflet was taken as 5⋅10^−17 liter. Ct was then calculated as N/NA divided by the relevant volume (NA, Avogadro's number).
For the ensemble fitting, all experimental current traces were normalized to their steady-state values observed prior to exposure to Vx-770. Predicted normalized on- and off- current time courses for each model were calculated from the above dynamic equations by solving for the time-dependent evolution of the vector x, using a modified Euler's method ([Press, 1992]). For the on- time courses the initial values for all xi were set to zero, for the off- time courses the final x vector of the preceding on- time course served as the initial vector while Vc was set to zero. […]

[2] = Octanol/water distribution coefficient from solubilities; type: physicochemical; conditions: pH=7.1
WT CFTR [3] = conditions: cited from earlier work
[4] = Scheme 3, average of global fits to three pairs of time courses
[5] = Scheme 4, average of global fits to three pairs of time courses

T1 sequence (P13569 whole entry): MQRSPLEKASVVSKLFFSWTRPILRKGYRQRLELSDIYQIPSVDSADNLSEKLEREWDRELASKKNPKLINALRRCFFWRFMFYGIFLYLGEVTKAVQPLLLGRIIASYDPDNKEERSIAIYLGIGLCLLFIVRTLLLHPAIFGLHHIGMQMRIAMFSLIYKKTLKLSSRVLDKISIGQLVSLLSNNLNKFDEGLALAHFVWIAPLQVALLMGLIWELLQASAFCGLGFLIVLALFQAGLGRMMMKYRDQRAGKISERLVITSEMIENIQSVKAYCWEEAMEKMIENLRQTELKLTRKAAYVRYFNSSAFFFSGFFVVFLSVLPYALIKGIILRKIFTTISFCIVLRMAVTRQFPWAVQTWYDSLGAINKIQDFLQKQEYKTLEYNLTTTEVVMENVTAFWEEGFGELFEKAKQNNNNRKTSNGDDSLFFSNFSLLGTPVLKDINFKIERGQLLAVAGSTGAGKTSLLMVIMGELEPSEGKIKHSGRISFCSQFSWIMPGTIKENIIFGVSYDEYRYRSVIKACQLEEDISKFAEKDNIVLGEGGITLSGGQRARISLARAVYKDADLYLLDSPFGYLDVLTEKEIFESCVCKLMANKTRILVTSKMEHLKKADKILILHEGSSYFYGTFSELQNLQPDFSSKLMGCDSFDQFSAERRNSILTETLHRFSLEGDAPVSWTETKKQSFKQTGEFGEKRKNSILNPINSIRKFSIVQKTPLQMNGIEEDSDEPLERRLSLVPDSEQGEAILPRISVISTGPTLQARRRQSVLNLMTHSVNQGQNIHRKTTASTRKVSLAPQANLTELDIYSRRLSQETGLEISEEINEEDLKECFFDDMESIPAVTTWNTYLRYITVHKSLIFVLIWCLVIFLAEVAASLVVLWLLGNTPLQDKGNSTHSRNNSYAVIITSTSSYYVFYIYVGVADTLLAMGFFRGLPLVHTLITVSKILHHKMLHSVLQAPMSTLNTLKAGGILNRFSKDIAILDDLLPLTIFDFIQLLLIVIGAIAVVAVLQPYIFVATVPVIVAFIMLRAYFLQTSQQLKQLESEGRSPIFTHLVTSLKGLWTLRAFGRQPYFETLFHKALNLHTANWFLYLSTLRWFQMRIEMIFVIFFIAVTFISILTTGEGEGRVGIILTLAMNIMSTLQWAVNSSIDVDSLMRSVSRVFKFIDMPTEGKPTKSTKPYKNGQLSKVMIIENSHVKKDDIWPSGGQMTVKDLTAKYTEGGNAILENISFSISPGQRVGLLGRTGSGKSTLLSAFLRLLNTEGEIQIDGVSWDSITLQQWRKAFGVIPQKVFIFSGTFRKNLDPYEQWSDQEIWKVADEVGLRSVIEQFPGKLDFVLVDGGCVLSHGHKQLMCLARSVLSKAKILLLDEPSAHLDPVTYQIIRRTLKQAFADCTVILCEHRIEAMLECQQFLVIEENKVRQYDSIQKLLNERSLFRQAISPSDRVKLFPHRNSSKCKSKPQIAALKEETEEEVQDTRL

Compound: CC(C)(C)c1cc(C(C)(C)C)c(NC(=O)c2c[nH]c3ccccc3c2=O)cc1O [Vx-770, ivacaftor]
- EC50 (WT CFTR [1]; Scheme 3, Figure 5f data set, read-out: K0.5;aq): 0.74 nM
- kin (WT CFTR [1]; Scheme 3, average (mean ± S.E.M.) of global fits to three pairs of time courses): 4034 ± 464 s⁻¹
- Po;max/Po;bas (WT CFTR [1]; [4]): 3.935 ± 0.001
- koff (WT CFTR [1]; [4]): 0.00745 ± 0.000871 s⁻¹
- kon (WT CFTR [1]; [4]): 870 ± 104 M⁻¹ s⁻¹
- kout (WT CFTR [1]; [4]): 0.06446 ± 0.00742 s⁻¹
- EC50 (WT CFTR [1]; Scheme 3, average of three fits, read-out: K0.5;aq): 0.675 ± 0.0895 nM
- EC50 (WT CFTR [1]; Scheme 3, average of three fits, read-out: K0.5;mem): 21100 ± 2800 nM
- Kd (WT CFTR [1]; Scheme 3, average of three fits): 8750 ± 1160 nM
- koff (WT CFTR [1]; Scheme 3, global fit to data set of Figure 5f): 0.00651 s⁻¹
- EC50 (WT CFTR [1]; Scheme 4, Figure 5f data set, read-out: K0.5;aq): 0.72 nM
- kin (WT CFTR [1]; Scheme 4, average (mean ± S.E.M.) of global fits to three pairs of time courses): 9794 ± 531 s⁻¹
- Po;max/Po;bas (WT CFTR [1]; [5]): 3.996 ± 0.007
- kflip (WT CFTR [1]; [5]): 0.04408 ± 0.00583 s⁻¹
- koff (WT CFTR [1]; [5]): 0.01075 ± 9e-05 s⁻¹
- kon (WT CFTR [1]; [5]): 3700 ± 627 M⁻¹ s⁻¹
- kout (WT CFTR [1]; [5]): 0.1565 ± 0.0085 s⁻¹
- EC50 (WT CFTR [1]; Scheme 4, average of three fits, read-out: K0.5;aq): 0.669 ± 0.0955 nM
- EC50 (WT CFTR [1]; Scheme 4, average of three fits, read-out: K0.5;mem): 7500 ± 1460 nM
- Kd (WT CFTR [1]; Scheme 4, average of three fits): 3110 ± 605 nM
- koff (WT CFTR [1]; Scheme 4, global fit to data set of Figure 5f): 0.0106 s⁻¹
- logD ([2]; octanol/water): 4.8
- octanol/water distribution coefficient Doct/wat [2]: 62580 and ~ 60000
- maximal stimulation of WT CFTR channels (WT CFTR [3]; lower end of reported range, ref Cui and McCarty, 2015): ~ 1.1 fold
- reversibility of CFTR channel stimulation in cell-free patches (WT CFTR [3]; ref Jih and Hwang, 2013, Lin et al., 2016, Yeh et al., 2015, 2017, Wang et al., 2014, 2018): irreversible
- EC50 (WT CFTR [3]; ref Van Goor et al., 2014, Langron et al., 2018, read-out: previously reported K0.5 for stimulation of WT CFTR): ~300 nM
- maximal stimulation of WT CFTR channels (WT CFTR [3]; upper end of reported range, ref Wang et al., 2018): ~ 3 fold
